Values of other authors, collected in patent US12176087B2, “Pharmacogenomic decision support for modulators of the NMDA, glycine, and AMPA receptors” (THE REGENT OF THE UNIVERSITY OF MICHIGAN, priority 2019, dated 2024).

Tests used:
[1] = tested on: treatment-resistant depression (TRD) patients
[2] = tested on: TRD patients; settings: phase III trial

Row | SMILES | TRD patients who do not remit after treatment ([1]; fraction of all TRD patients) | TRD patients with rapid antidepressant response and concomitant elevated levels of glutamate in cortex ([1]; measured by MADRS total score) | deaths reported [2] | TRD patients who experienced severe dissociative effects ([2]; fraction of TRD patients) | TRD patients in the treatment arm with severe psychotomimetic effects including delirium, delusion and suicidal ideation, as well as suicide attempts ([2]; treatment arm, additional)
1 | CNC1(c2ccccc2Cl)CCCCC1=O (racemic) [Ketamine, RS-2-chlorophenyl-2-methylamino-cyclohexanone] | about half | approximately 50% | – | – | –
2 | CN[C@]1(c2ccccc2Cl)CCCCC1=O [Esketamine] | – | – | 2 | a quarter | 6.9%
